Results taken from patent US20110218143A1, “COMPOSITIONS AND METHODS FOR TISSUE REPAIR” (UNIVERSITY OF FLORIDA RESEARCH FOUNDATION, priority 2007, published 2011).
“And” between values parts separate entries of the source, which are not always exact repeats. Equal values may be shown once.

How the values were obtained:
[1] = test system: mice with DOX induced heart disease; assay: Survival in doxorubicin (DOX) induced heart disease; format: in vivo, C57BL6/J mice; conditions: DOX 20 mg/kg and celastrol 3 mg/kg; after 2 weeks; DOX with placebo 80% mortality
Protocol: The administration of doxorubicin (DOX; adriamycin) to induce cardiac damage is a well-known model of heart disease see for example, Rosenhoff et al., “Adriamycin-induced cardiac damage in the mouse: a small-animal model of cardiotoxicity.” J Natl Cancer Inst. July 1975; 55(1):191-4; and van der Vijgh et al., “Morphometric study of myocardial changes during doxorubicin-induced cardiomyopathy in mice.” Eur J Cancer Clin Oncol. October 1988; 24(10):1603-8. Doxorubicin was administered to C57BL6/J mice to induce heart damage. Groups of 13-14 C57BL6/J mice received either DOX (20 mg/kg) and a placebo, or DOX (20 mg/kg) and celastrol (3 mg/kg). Mice were examined after 2 weeks to determine survival (FIG. 13).

[2] = test system: irradiated wild type mice, C57BL/6; assay: Transfer of blood cells of treated GFP mice into irradiated wild type mice; format: in vivo, C57BL/6 mice
Protocol: As reported herein, celastrol activated and mobilized stem cells into peripheral blood. These observations were extended using GFP mice to analyse stem cell mobilization. Mice expressing GFP in their bone marrow were treated with celastrol and placebo. Blood samples were collected on the third day and red blood cells were lysed. White blood cells containing mobilized stem cells, if any, were injected at 0.5×10^6 cells per mouse through retro-orbital sinus into wild type mice, C57BL/6 that were irradiated to destroy the hematopoietic systems. Cells obtained from placebo-treated GFP mice were injected into a group of wild type mice which served as control. Blood samples from wild type mice that received stem cells from celastrol-treated GFP mice were analyzed after 3, 4 and 5 months of transfer.

NOD-scid mice = assay: Adaptive transfer of splenocytes into NOD-scid mice; format: in vivo; conditions: splenocytes from celastrol treated NOD mice, 5.3×10^6 cells per mouse via tail vein; at 68 day
Text: NOD mice were sacrificed and splenocytes collected from celastrol-treated healthy mice and mice that became diabetic recently were adaptively transferred at 5.3×10^6 cells per mouse into NOD-scid mice (mice free from immune system) via tail vein injection. Blood glucose levels of the mice were monitored starting from 4 weeks after the adaptive transfer was made. All mice (n=4) that received splenocytes from diabetic mice became diabetic between 31-38 days (FIG. 17, Kaplan-Meier graph). In contrast, mice (12/12) that received splenocytes from celastrol treated mice were free of diabetes (hyperglycemic condition) at 68 day (FIG. 17).

[3] = test system: irradiated wild type mice, C57BL/6; assay: Secondary adaptive transfer of bone marrow cells into irradiated wild type mice; format: in vivo, C57BL/6 mice; conditions: bone marrow cells from celastrol treated primary adaptive transfer group, 1.5×10^6 cells per mouse; at 7 weeks; control group died within 10 days
Text: Wild type mice that survived the primary transfer were used for secondary transfer. Bone marrow cells obtained from these mice were collected and transferred into irradiated wild type mice, C57BL/6 at 1.5×10^6 cells per mouse.

[4] = test system: stem cell populations in bone marrow (cd34+, cd45+, Sca-1+ cells); assay: FACS of cells expressing stem cell markers CD34, CD45, Sca-1 in bone marrow samples; format: in vivo, C57BL6/J mice
Protocol: Mice received either a placebo (PBS) or oridonin (3.0 mg/kg) by intraperitoneal injection.

[5] = test system: mice with ALF induced by TAA; assay: Survival in TAA induced acute liver failure; format: in vivo, C57BL6/J mice; conditions: TAA 1000 mg/kg and celastrol 3 mg/kg i.p.; examined 3 days or longer; TAA alone 100% mortality
Protocol: Thiomacetamide (TAA) was administered to C57BL6/J mice to induce liver damage. Groups of at least 6 C57BL6/J mice received either TAA (1000 mg/kg) and a placebo, TAA (1000 mg/kg) and celastrol (3 mg/kg), or placebo only by intraperitoneal injection. Mice were examined for 3 days or longer to determine survival (FIG. 12).

[6] = test system: mice with STZ induced diabetes; assay: Glucose challenge test in STZ mice; format: in vivo, C57BL6/J mice; conditions: 1 g glucose/kg, monitored up to 5 hours, placebo mice at or above 400 mg/dl between 0.5 and 2 hours
Protocol: STZ was administered to C57BL6/J mice as described above to induce diabetes. Groups of C57BL6/J mice that received either STZ and placebo or STZ and celastrol were then subjected to a glucose challenge test to assay glucose metabolism. STZ mice received 1 g glucose/kg. Blood glucose levels were monitored for up to 5 hours following administration of glucose. […] Blood glucose levels never reached these levels in STZ mice treated with celastrol. In fact, mice treated with celastrol were better able to metabolize glucose than STZ mice that received placebo (FIG. 10).

[7] = celastrol 2.5 mg/kg i.p., 24 hours post treatment

Structure (SMILES): CC1=C(O)C(=O)C=C2C1=CC=C1[C@@]2(C)CC[C@@]2(C)[C@@H]3C[C@](C)(C(=O)O)CC[C@]3(C)CC[C@]12C [celastrol]
- survival [1]: 40%
- recipient mice surviving for at least 5 months ([2]; irradiated mice given 0.5×10^6 white blood cells from celastrol treated GFP mice, n=4, placebo-cell recipients died between 12 and 16 days): 50%
- survival time of the other two recipient mice ([2]; irradiated mice given cells from celastrol treated GFP mice): 17 days and 25 days
- recipient mice free of diabetes (hyperglycemic condition) (NOD-scid mice): 12/12
- mice still surviving secondary transfer [3]: 85.7%
- cd34+ cells, percent of the population of bone marrow cells [4, 7]: 0.2%
- fold increase of percentage of cd34+ cells in bone marrow over control [4, 7]: ~4 fold
- fold increase of percentage of cd45+ cells in bone marrow vs untreated control [4, 7]: about 2 fold
- fold increase of percentage of cd34+ cells in bone marrow over control ([4]; celastrol 2.5 mg/kg i.p., 48 hours): ~2 fold
- increase in CD45 population in bone marrow ([4]; celastrol 2.5 mg/kg i.p., 48 hours post treatment, undetectable in placebo mice): still detectable
- fold increase in the proportion of Sca-1+ stem cells in bone marrow vs untreated mice ([4]; celastrol 2.5 mg/kg i.p., by 48 hours): ~3 fold
- fold increase in the proportion of Sca-1+ stem cells in bone marrow vs untreated mice ([4]; celastrol 2.5 mg/kg i.p., time not printed (before 48 hours)): approximately 4 fold
- increase in cd34+, cd45+ and sca-1+ cells compared with GM-CSF ([4]; doses not given): exceeded that observed using GM-CSF
- survival [5]: 71.4%
- blood glucose levels after glucose challenge [6]: < 400 mg/dL
